In patent publication US4450279A, “Dialkylthioxanthones” (priority 1981, dated 1984):
In brackets after ≈: the same amount, converted by molar mass. Where two headings read alike, the source gives them in different places. Values belong to the molecule of their own block, whether it stands above or below them.

Columns and labels:
[1] = Yellowing resistance of coating film after irradiation, estimated visually; parameters: key: A: Only slight yellowing; B: Clear yellowing; C: Remarkable yellowing
Source text: The above photopolymerizable resin composition was applied to a glass plate in a thickness of 25μ and left 9 cm below a xenone lamp. The sensitivity was judged by measuring the time until the surface of the coated film ceases to be sticky (whether the coated film is sticky or not is judged by the touch with finger) under the continuous irradiation.
*^1 Yellowing resistance in the above table was estimated
visually from the state of the coating film after the

[2] = Hardening time of photopolymerizable resin film under continuous xenon lamp irradiation (until surface ceases to be sticky)
Source text: Bisphenol A diglycidyl ether diacrylate
(§1) Trimethylolpropane triacrylate
Triethanolamine 2.5 parts by weight
Photopolymerization initiator of formula (I)
(dialkylthioxanthone derivative)
Irradiation device and conditions: […]

[3] = Solubility in organic solvents; type: physicochemical; details: organic solvent or mixture
[4] = unsubstituted thioxanthone, background; cited from earlier work
[5] = dispersed in resin, storage for a long period; background; cited from earlier work
[6] = Yellowing resistance of pigmented coating film; parameters: key: A: Only slight yellowing; B: Clear yellowing; C: Remarkable yellowing; details: Table V; composition (B), titanium oxide; same criteria as Table II
Description: (§2) The following photopolymerizable resin compositions (A) and (B) were prepared. Each of the compositions was applied to an aluminum plate in a thickness of 25μ. The aluminum plate was placed on a belt conveyer moving 20 cm below an 80 W/cm high-pressure mercury lamp at a speed of 18 m/min. Relationship between the number of passage times and physical properties of the coating film was examined to obtain the results shown in Table V.
(§3) (B) Titanium oxide-containing
(§4) Urethane acrylate resin
as §1
(§5) Butyl acrylate 18.8 parts by weight
(§6) Vinylpyrrolidone 9.4 parts by weight
(§7) Titanium oxide (rutile type)
(§8) Methyldiethanolamine 1.5 parts by weight
(§9) Photopolymerization initiator of
*^3 Yellowing resistance was estimated based on the same criteria as i

[7] = Pencil hardness of pigmented coating film after passing under high-pressure mercury lamp (JIS K 5400); details: for Pencil hardness after passing 3 times / Pencil hardness after passing 5 times: composition (A), carbon black; for Pencil hardness after passing 3 times: 3 passages; for Pencil hardness after passing 5 times: 5 passages; for Pencil hardness after passing 6 times: composition (B), titanium oxide, 6 passages
Description: as §2
(A) Carbon black-containing composition:
Epoxy acrylate resin (Shell
as §1
Hexanediol diacrylate 14.8 parts by weight
Carbon black 2.5 parts by weight
Methyldiethanolamine 2.0 parts by weight
as §9, §3, §4, §5, §6, §7, §8
*^2 Pencil hardness was determined according to JISK 5400 6, 14.

[8] = Hardening of trifunctional maleimide photopolymerizable resin film under high-pressure mercury lamp; details: 2.5 parts per 100 parts resin; 50μ on glass; 80 W/cm Hg lamp, 10 cm, 20 sec
Description: 16 Parts of diglycerol triglycidyl ether, 23 parts by weight of α-phenylmaleimidoacetic acid, 0.2 part by weight of dimethylaminoethyl methacrylate and 40 parts by weight of butyl acetate were reacted together at 90°-100° C. for 2 h to obtain a trifunctional photopolymerizable resin in which α-phenylmaleimidoacetic acid was added to substantially all glycidyl groups. 2.5 Parts by weight of 2,4-diisopropylthioxanthone of the present invention was added to 100 parts by weight of the above resin and the whole was kneaded thoroughly and applied onto a glass plate in a thickness of 50μ. […] In case 2,4-diisopropylthioxanthone was not added, the film was not hardened even after 60 min.

[9] = Table III, Control Example 1, same criteria as Table II
[10] = 1,2-dichloroethane, read-out: Solubility, 1,2-Dichloroethane
[11] = 1,2-dichloropropane, read-out: Solubility, 1,2-Dichloropropane
[12] = acetone, read-out: Solubility, Acetone
[13] = ethanol, read-out: Solubility, Ethanol
[14] = ethyl acetate, read-out: Solubility, Ethyl acetate
[15] = methanol, read-out: Solubility, Methanol
[16] = toluene, read-out: Solubility, Toluene
[17] = Table II, visual, after irradiation
[18] = Table II, 2.5 parts initiator, 2.5 parts triethanolamine, 25μ film on glass, xenon lamp 9 cm

Molecule: CCc1ccc(CC)c2c(=O)c3ccccc3sc12 [1,4-Diethylthioxanthone]
Yellowing resistance [1, 9]: A
Hardening time ([2]; Table III, Control Example 1): 50 s

Molecule: CC(C)c1ccc(C(C)C)c2c(=O)c3ccccc3sc12 [1,4-Diisopropylthioxanthone]
Yellowing resistance [1, 9]: A
Hardening time ([2]; Table III, Control Example 1): 50 s

Molecule: Cc1ccc(C)c2c(=O)c3ccccc3sc12 [1,4-Dimethylthioxanthone]
Yellowing resistance [1, 9]: B
Hardening time ([2]; Table III, Control Example 1): 40 s

Molecule: CCc1c(C(C)C)ccc2sc3ccccc3c(=O)c12 [1-Ethyl-2-isopropylthioxanthone]
Yellowing resistance [1, 9]: A
Hardening time ([2]; Table III, Control Example 1): 50 s

Molecule: CCc1ccc2sc3ccccc3c(=O)c2c1C [1-Methyl-2-ethylthioxanthone]
Hardening time ([2]; Table III, Control Example 1): > 60 s

Molecule: CCc1ccc(C)c2c(=O)c3ccccc3sc12 [1-Methyl-4-ethylthioxanthone]
Yellowing resistance [1, 9]: B
Hardening time ([2]; Table III, Control Example 1): 50 s

solubility [3, 10]: 11 mg/mL (≈ 51.8 mM)
solubility [3, 11]: < 5 mg/mL
solubility [3, 12]: < 5 mg/mL
solubility [3, 13]: < 5 mg/mL
solubility [3, 14]: 5 mg/mL (≈ 23.6 mM)
solubility [3, 15]: < 5 mg/mL
solubility [3, 16]: < 5 mg/mL
Molecule: O=c1c2ccccc2sc2ccccc12 [Compound 1, thioxanthone]
Solubility in and compatibility with photopolymerizable compound [4]: poor solubility
Hardening time ([2]; Table III, Control Example 1): > 60 s
Crystallization during storage [5]: crystallizes out during the storage for a long period of time

solubility [3, 10]: 166 mg/mL (≈ 734 mM)
solubility [3, 11]: 77 mg/mL (≈ 340 mM)
solubility [3, 12]: 30 mg/mL (≈ 133 mM)
solubility [3, 13]: < 10 mg/mL
solubility [3, 14]: 29 mg/mL (≈ 128 mM)
solubility [3, 15]: < 10 mg/mL
solubility [3, 16]: 55 mg/mL (≈ 243 mM)
Molecule: Cc1ccc2sc3ccccc3c(=O)c2c1 [Compound 2, 2-methylthioxanthone]

solubility [3, 10]: > 500 mg/mL
solubility [3, 11]: > 500 mg/mL
solubility [3, 12]: 300 mg/mL (≈ 1180 mM)
solubility [3, 13]: 36 mg/mL (≈ 142 mM)
solubility [3, 14]: 300 mg/mL (≈ 1180 mM)
solubility [3, 15]: 33 mg/mL (≈ 130 mM)
solubility [3, 16]: > 500 mg/mL
Molecule: CC(C)c1ccc2sc3ccccc3c(=O)c2c1 [Compound 3, 2-isopropylthioxanthone]

Molecule: CCc1cc(CC)c2sc3ccccc3c(=O)c2c1 [Example 1, 2,4-diethylthioxanthone]
Yellowing resistance [6]: A
Pencil hardness after passing 3 times [7]: 3H
Pencil hardness after passing 5 times [7]: 6H
Pencil hardness after passing 6 times [7]: 3H
Yellowing resistance [1, 17]: A
Hardening time [2, 18]: 15 s

solubility [3, 10]: > 500 mg/mL
solubility [3, 11]: > 500 mg/mL
solubility [3, 12]: > 400 mg/mL
solubility [3, 13]: 90 mg/mL (≈ 304 mM)
solubility [3, 14]: > 500 mg/mL
solubility [3, 15]: 60 mg/mL (≈ 202 mM)
solubility [3, 16]: > 500 mg/mL
Molecule: CC(C)c1cc(C(C)C)c2sc3ccccc3c(=O)c2c1 [Example 2, 2,4-diisopropylthioxanthone]
Yellowing resistance [6]: A
Pencil hardness after passing 3 times [7]: 4H
Pencil hardness after passing 5 times [7]: ≥ 6H
Pencil hardness after passing 6 times [7]: 4H
Yellowing resistance [1, 17]: A
Hardening time [2, 18]: 10 s
Hardened coating film [8]: coating film insoluble in dichloroethane or acetone

Molecule: Cc1cc(C(C)(C)C)cc2c(=O)c3ccccc3sc12 [Example 5, m-tert-butylmethyl thioxanthone]
Yellowing resistance [1, 17]: A
Hardening time [2, 18]: 15 s

Molecule: CC(C)(C)c1cc(C(C)(C)C)c2sc3ccccc3c(=O)c2c1 [Example 10, 2,4-di-tert-butylthioxanthone]
Yellowing resistance [1, 17]: A
Hardening time [2, 18]: 25 s

Molecule: CC(C)c1ccc2sc3ccccc3c(=O)c2c1 [Isopropylthioxanthone]
Yellowing resistance [1, 9]: B
Hardening time ([2]; Table III, Control Example 1): 20 s

Molecule: Ethylthioxanthone
Yellowing resistance [1, 9]: C
Hardening time ([2]; Table III, Control Example 1): 40 s

Molecule: Methylthioxanthone
Yellowing resistance [1, 9]: C
Hardening time ([2]; Table III, Control Example 1): 40 s
